Consider six compounds from US9227919B2, “Arylalkylamine compounds as calcium sensing receptor modulators” (Lupin Limited, priority 2012, dated 2016).

The term EC50 denotes the concentration at which the effect is half-maximal.

Where a name gives a salt, the structure may show the parent alone.

This experiment has as its target T1, Calcium Sensing Receptor (CaSR) (Homo sapiens, UniProt P41180).
T1 construct: expressed in transfected cells
T1 sequence (P41180 20-1078): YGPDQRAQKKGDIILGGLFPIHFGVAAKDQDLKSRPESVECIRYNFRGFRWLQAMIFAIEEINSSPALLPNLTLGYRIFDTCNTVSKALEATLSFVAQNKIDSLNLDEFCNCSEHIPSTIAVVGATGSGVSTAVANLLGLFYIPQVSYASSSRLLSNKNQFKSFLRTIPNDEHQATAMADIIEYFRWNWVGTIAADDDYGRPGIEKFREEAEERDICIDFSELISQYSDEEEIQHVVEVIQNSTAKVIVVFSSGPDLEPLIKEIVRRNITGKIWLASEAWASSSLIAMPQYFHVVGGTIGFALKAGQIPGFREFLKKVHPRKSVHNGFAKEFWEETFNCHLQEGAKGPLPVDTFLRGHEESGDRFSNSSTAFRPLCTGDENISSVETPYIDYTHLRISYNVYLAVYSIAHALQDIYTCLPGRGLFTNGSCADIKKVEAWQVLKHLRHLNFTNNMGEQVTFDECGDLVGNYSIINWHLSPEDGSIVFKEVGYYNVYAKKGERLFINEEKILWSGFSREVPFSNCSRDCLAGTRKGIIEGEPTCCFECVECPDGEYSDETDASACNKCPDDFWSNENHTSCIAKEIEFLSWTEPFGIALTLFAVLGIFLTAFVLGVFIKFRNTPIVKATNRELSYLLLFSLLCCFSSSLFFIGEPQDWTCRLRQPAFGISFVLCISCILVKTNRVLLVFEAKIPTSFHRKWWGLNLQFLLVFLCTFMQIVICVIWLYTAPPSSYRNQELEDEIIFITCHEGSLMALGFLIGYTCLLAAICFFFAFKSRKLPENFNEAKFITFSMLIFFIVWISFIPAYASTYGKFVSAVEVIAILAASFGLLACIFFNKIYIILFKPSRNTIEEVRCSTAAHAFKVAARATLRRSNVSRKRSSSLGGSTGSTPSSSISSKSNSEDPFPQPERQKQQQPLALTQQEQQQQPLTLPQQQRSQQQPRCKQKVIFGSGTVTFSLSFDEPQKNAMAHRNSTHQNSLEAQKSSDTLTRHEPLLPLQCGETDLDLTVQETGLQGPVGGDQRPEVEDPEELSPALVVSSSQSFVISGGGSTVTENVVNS
Kind of experiment: In-vitro assay of calcimimetics through modulation of Calcium Sensing Receptor (intracellular calcium increase, FLIPR). It counts as cell-based. Conditions: stably transfected HEK293 cells expressing hCaSR; Fluo4NW dye; 0.3 mM CaCl2; 8-point assay; read-out: EC50 Range. How it is done:
Certain illustrative compounds within the scope of the invention are screened for CaSR activity according to the procedure given below. The screening of the compounds may also be carried by other methods and procedures known to skilled in the art.
In-vitro assay method of Calcimimetics through modulation of Calcium Sensing Receptor (CaSR):
The ability of the compounds to modulate Calcium sensing receptor is determined by measuring an increase in intracellular calcium [Ca^2+]i. Stably transfected HEK293 cells expressing hCaSR_pTriEx-3 hygro vector are developed. Cells are grown overnight on a 96-well plate to 80% confluency in Ham's F12 containing 20% FBS at 37° C., 5% CO2. Subsequently, cells are washed extensively with 20 mM HEPES buffer containing 126 mM […], 1 mM MgCl2 and 4 mM KCl to remove serum components that might interfere with the assay. Cells are loaded with calcium sensing Fluo4NW dye in HEPES base buffer containing 0.1% BSA and lmg/ml glucose for 30 minutes to measure changes in intracellular calcium. The activities of the compounds are measured in FLIPR using 0.3 mM CaCl2 in 20 mM HEPES base buffer. The effectiveness of the compound to modulate receptor activity is determined by calculating the EC50 responses for that compound in an 8-point assay and plotted using GraphPad Prism 5.
The compounds prepared were tested using the above assay procedure and the results obtained are given below.
Background: Calcium flux is commonly read through the fluorescence of an indicator in the cells.
As for `Cc1ccc(C2CC(N[C@H](C)c3cccc4ccccc34)Cc3ccccc32)cc1C(=O)O` (stereo partly drawn) [Example 22, 2-Methyl-5-(3-(((R)-1-(naphthalen-1-yl)ethyl)amino)-1,2,3,4-tetrahydronaphthalen-1-yl)benzoic acid hydrochloride], the concentration for a half-maximal effect (EC50) lay within 20 to 50 nM.

For `Cc1cc(C2CC(N[C@H](C)c3cccc4ccccc34)Cc3ccccc32)ccc1C(=O)O` (stereo partly drawn) [Example 23, 2-Methyl-4-(3-(((R)-1-(naphthalen-1-yl)ethyl)amino)-1,2,3,4-tetrahydronaphthalen-1-yl)benzoic acid hydrochloride], the EC50 was in the range of 20 to 50 nM.

As to `Cc1ccc(C2C[C@H](CCN[C@H](C)c3ccc(F)c4ccccc34)Cc3ccccc32)cc1C(=O)O` (stereo partly drawn) [Example 25, 5-((3S)-3-(2-(((R)-1-(4-Fluoronaphthalen-1-yl)ethyl)amino)ethyl)-1,2,3,4-tetrahydronaphthalen-1-yl)-2-methylbenzoic acid hydrochloride], the concentration giving a half-maximal response (EC50) lay within 20 to 50 nM.

`Cc1ccc(C2C[C@H](CCCN[C@H](C)c3ccc(F)c4ccccc34)Cc3ccccc32)cc1C(=O)O` (stereo partly drawn) [Example 29, 5-((3S)-3-(3-(((R)-1-(4-fluoronaphthalen-1-yl)ethyl)amino)propyl)-1,2,3,4-tetrahydronaphthalen-1-yl)-2-methylbenzoic acid hydrochloride]: the EC50 is less than 20 nM.

Regarding `Cc1ccc(C2C[C@@H](CCCN[C@H](C)c3cccc4ccccc34)Cc3ccccc32)cc1C(=O)O` (stereo partly drawn) [Example 31, 2-Methyl-5-((3R)-3-(3-(((R)-1-(naphthalen-1-yl)ethyl)amino)propyl)-1,2,3,4-tetrahydronaphthalen-1-yl)benzoic acid hydrochloride], the EC50 was less than 20 nM.

As for `Cc1ccc(N2C[C@@H](CN[C@H](C)c3cccc4ccccc34)Cc3ccccc32)cc1C(=O)O` [Example 69a, 2-Methyl-5-(3-((((R)-1-(naphthalen-1-yl)ethyl)amino)methyl)-3,4-dihydroquinolin-1(2H)-yl)benzoic acid hydrochloride], the concentration giving a half-maximal response (EC50) was less than 20 nM.
